Test results from US10335409B2 (priority 2012, dated 2019).

How the values were obtained:
[1] = molecular target: HCV NS3 protease domain genotype 3a (Hepatitis C virus genotype 3a, UniProt Q81258); experiment: Ki determination, NS3 protease genotype 3a (fluorogenic depsipeptide substrate); assay type: biochemical; conditions: 200 pM enzyme, NS4A peptide
Summary of the method: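 The NS3 protease domain (aa 1-181) with 20 μM NS4A peptide was used at 50 pM with 4 μM substrate (1b) or at 200 pM with 2 μM substrate (3a). Inhibitors (100 nM-5 pM) were pre-incubated 1 h at room temperature in HEPES/glycerol/DTT buffer with 10% DMSO. Steady-state rates (90-120 min) gave Ki via the Morrison equation, corrected for active enzyme and [S]/Km.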

[2] = test system: genotype 1a (H77) stable HCV replicon in Huh-7-derived cells; experiment: Stable subgenomic HCV replicon EC50, genotype 1a (Renilla luciferase); assay type: cell-based, hepatitis C virus; conditions: Hepatitis C virus, stable replicon genotype 1a, 72 h, read-out: EC50 1A RLUC
Summary of the method: (§1)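 Compounds, three-fold diluted, were applied to Huh-7-derived cells harbouring luciferase replicons (genotype 1a H77, 1b Con1, 2a JFH-1, 4a ED43, with strain-specific adaptive mutations). Seventy-two hours later, intracellular replication was gauged by Renilla luciferase activity and EC50 derived by regression.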

[3] = test system: genotype 1b (Con1) stable HCV replicon in Huh-7-derived cells; experiment: Stable subgenomic HCV replicon EC50, genotype 1b (Renilla luciferase); assay type: cell-based, hepatitis C virus; conditions: Hepatitis C virus, stable replicon genotype 1b, 72 h, read-out: EC50 1B RLUC
Summary of the method: as §1

[4] = test system: genotype 2a (JFH-1) stable HCV replicon in Huh-7-derived cells; experiment: Stable subgenomic HCV replicon EC50, genotype 2a (Renilla luciferase); assay type: cell-based, hepatitis C virus; conditions: Hepatitis C virus, stable replicon genotype 2a, 72 h, read-out: EC50 2A RLUC
Summary of the method: as §1

[5] = test system: genotype 3a (S52) stable HCV replicon in Huh-7-derived cells; experiment: Stable subgenomic HCV replicon EC50, genotype 3a (Renilla luciferase); assay type: cell-based, hepatitis C virus; conditions: Hepatitis C virus, 72 h, read-out: EC50 3A RLUC
[6] = test system: genotype 4a (ED43) stable HCV replicon in Huh-7-derived cells; experiment: Stable subgenomic HCV replicon EC50, genotype 4a (Renilla luciferase); assay type: cell-based, hepatitis C virus; conditions: Hepatitis C virus, 72 h, read-out: EC50 4A RLUC
Summary of the method: as §1

[7] = test system: genotype 3a (S52) wild type transient HCV replicon in Huh-7-derived cells; experiment: Transient-transfected HCV replicon EC50, genotype 3a wild type; assay type: cell-based, hepatitis C virus; conditions: Hepatitis C virus; transient-transfected replicon genotype 3a wild type, 72 h; read-out: EC50 3A WT
[8] = test system: genotype 1a (H77) wild type transient HCV replicon in Huh-7-derived cells; experiment: Transient-transfected HCV replicon EC50, genotype 1a wild type; assay type: cell-based, hepatitis C virus; conditions: Hepatitis C virus, 72 h, transient-transfected replicon genotype 1a wild type, read-out: EC50 1A WT
[9] = test system: genotype 1a NS3/4a protease inhibitor resistant variant R155K transient HCV replicon in Huh-7-derived cells; experiment: Transient-transfected HCV replicon EC50, genotype 1a R155K; assay type: cell-based, hepatitis C virus; conditions: Hepatitis C virus, 72 h, read-out: EC50 1A R155K, transient-transfected replicon genotype 1a R155K resistant variant, 72 h
[10] = test system: genotype 1b (Con1) wild type transient HCV replicon in Huh-7-derived cells; experiment: Transient-transfected HCV replicon EC50, genotype 1b wild type; assay type: cell-based, hepatitis C virus; conditions: Hepatitis C virus, 72 h, transient-transfected replicon genotype 1b wild type, read-out: EC50 1B WT
[11] = test system: genotype 1b NS3/4a protease inhibitor resistant variant D168A transient HCV replicon in Huh-7-derived cells; experiment: Transient-transfected HCV replicon EC50, genotype 1b D168A; assay type: cell-based, hepatitis C virus; conditions: Hepatitis C virus, 72 h, read-out: EC50 1B D168A, transient-transfected replicon genotype 1b D168A resistant variant, 72 h

Sequence of HCV NS3 protease domain genotype 3a (Q81258 whole entry, looked up, the tested form may be a part): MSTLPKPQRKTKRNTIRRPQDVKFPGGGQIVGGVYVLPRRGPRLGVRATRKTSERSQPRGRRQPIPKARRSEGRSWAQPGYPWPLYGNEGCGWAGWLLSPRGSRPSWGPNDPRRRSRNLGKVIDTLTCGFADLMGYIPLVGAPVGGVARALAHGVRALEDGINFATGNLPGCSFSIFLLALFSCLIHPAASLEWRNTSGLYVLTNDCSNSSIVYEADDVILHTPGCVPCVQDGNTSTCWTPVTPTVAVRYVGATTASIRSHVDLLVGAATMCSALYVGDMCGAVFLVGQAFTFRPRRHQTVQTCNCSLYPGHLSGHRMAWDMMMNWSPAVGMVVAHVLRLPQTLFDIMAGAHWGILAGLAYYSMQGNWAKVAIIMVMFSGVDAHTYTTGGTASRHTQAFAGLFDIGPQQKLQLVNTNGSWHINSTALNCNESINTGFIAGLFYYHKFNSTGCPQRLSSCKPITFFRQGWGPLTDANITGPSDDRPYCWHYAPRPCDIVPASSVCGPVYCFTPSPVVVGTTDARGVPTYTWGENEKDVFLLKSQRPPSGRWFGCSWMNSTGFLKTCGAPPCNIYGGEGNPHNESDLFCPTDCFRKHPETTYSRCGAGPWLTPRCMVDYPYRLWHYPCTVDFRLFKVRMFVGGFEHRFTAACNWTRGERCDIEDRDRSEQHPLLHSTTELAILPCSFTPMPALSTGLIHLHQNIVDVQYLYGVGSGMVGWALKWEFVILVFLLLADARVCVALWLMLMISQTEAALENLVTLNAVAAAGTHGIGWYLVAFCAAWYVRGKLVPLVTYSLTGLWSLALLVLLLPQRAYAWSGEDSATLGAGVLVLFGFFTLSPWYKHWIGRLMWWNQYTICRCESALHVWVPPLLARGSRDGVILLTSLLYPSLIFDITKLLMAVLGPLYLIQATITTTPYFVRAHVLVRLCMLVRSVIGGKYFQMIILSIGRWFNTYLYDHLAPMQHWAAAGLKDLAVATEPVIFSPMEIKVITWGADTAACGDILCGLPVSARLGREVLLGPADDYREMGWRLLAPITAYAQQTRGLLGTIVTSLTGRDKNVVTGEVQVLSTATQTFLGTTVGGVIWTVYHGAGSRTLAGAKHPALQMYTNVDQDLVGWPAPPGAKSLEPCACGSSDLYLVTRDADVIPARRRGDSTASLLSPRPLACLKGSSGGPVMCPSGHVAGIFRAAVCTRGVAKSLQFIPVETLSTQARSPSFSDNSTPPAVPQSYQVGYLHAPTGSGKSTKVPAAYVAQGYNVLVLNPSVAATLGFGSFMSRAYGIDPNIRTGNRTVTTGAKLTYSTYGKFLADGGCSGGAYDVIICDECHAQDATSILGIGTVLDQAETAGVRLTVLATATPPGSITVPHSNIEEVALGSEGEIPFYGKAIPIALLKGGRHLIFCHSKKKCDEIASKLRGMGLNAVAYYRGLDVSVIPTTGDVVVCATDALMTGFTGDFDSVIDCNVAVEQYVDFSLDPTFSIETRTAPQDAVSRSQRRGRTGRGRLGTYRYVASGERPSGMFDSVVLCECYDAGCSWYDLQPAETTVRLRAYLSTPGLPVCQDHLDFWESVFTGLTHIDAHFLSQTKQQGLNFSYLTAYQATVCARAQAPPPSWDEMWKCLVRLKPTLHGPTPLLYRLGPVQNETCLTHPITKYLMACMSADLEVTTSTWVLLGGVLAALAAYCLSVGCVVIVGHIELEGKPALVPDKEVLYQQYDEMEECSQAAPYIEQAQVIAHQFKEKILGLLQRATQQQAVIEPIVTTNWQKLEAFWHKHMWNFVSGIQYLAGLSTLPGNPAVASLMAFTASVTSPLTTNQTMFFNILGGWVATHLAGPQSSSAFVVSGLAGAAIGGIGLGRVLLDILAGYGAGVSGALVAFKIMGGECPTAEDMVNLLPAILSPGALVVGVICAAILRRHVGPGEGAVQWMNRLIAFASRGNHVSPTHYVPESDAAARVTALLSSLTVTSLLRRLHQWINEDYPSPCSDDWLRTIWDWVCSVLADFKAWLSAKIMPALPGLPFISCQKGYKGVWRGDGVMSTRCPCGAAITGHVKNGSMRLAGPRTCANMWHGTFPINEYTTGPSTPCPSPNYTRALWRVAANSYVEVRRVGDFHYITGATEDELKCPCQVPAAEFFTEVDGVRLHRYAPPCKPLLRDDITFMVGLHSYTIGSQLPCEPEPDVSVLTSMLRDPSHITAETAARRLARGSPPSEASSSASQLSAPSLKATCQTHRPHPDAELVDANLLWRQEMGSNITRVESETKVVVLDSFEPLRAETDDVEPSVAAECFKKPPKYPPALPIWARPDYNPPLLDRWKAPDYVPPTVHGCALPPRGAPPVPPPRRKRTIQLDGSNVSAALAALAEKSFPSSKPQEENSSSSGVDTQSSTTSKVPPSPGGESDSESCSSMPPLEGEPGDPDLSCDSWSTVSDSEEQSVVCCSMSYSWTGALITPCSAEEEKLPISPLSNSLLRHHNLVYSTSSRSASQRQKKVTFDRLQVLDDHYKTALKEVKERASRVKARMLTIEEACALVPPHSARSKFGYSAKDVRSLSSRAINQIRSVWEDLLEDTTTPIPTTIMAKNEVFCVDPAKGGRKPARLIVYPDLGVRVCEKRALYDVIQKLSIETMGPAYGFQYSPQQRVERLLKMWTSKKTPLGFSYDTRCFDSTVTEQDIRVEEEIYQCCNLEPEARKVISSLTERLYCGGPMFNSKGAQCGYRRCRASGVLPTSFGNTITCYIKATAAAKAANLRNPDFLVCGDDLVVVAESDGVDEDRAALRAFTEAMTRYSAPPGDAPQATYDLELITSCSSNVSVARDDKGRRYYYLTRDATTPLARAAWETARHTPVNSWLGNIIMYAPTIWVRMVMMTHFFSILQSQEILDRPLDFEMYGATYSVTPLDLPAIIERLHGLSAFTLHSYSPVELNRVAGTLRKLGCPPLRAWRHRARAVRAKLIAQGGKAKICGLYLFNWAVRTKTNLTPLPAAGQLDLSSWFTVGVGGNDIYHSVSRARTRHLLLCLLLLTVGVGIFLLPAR

Row | SMILES | Ki [1] [nM] | EC50 [2] [nM] | EC50 [3] [nM] | EC50 [4] [nM] | EC50 [5] [nM] | EC50 [6] [nM] | EC50 [7] [nM] | EC50 [8] [nM] | EC50 [9] [nM] | EC50 [10] [nM] | EC50 [11] [nM]
1 | COc1ccc2nc3c(nc2c1)O[C@H]1CN(C(=O)[C@H](C(C)(C)C)NC(=O)O[C@]2(C)C[C@H]2CCCCC3)[C@H](C(=O)N[C@]2(C(=O)NS(=O)(=O)C3(C)CC3)C[C@H]2C(F)F)[C@@H]1C [Example 44, (1aR,5S,8S,9S,10R,22aR)-5-tert-butyl-N-[(1R,2R)-2-(difluoromethyl)-1-{[(1-methylcyclopropyl)sulfonyl]carbamoyl}cyclopropyl]-14-methoxy-1a,9-dimethyl-3,6-dioxo-1,1a,3,4,5,6,9,10,18,19,20,21,22,22a-tetradecahydro-8H-7,10-methanocyclopropa[18,19][1,10,3,6]dioxadiazacyclononadecino[11,12-b]quinoxaline-8-carboxamide] | 0.08 | 3.1 | 2.1 | 2.9 | 53 | 2.2 | 7 | 2.4 | 4 | 1.4 | 15
2 | COc1ccc2nc3c(nc2c1)O[C@H]1CN(C(=O)[C@H](C(C)(C)C)NC(=O)O[C@@H]2C[C@H]2CCCCC3(F)F)[C@H](C(=O)N[C@]2(C(=O)NS(=O)(=O)C3(C)CC3)C[C@H]2C(F)F)[C@@H]1C [Example 46, (1aR,5S,8S,9S,10R,22aR)-5-tert-butyl-N-[(1R,2R)-2-(difluoromethyl)-1-{[(1-methylcyclopropyl)sulfonyl]carbamoyl}cyclopropyl]-18,18-difluoro-14-methoxy-9-methyl-3,6-dioxo-1,1a,3,4,5,6,9,10,18,19,20,21,22,22a-tetradecahydro-8H-7,10-methanocyclopropa[18,19][1,10,3,6]dioxadiazacyclononadecino[11,12-b]quinoxaline-8-carboxamide] | 0.05 | 3.1 | 2.7 | 3.8 | 17 | 2.5 | 6.79 | 2.4 | 3.2 | 1.2 | 4.5
3 | CC[C@@H]1[C@@H]2CN(C(=O)[C@H](C(C)(C)C)NC(=O)O[C@]3(C)C[C@H]3CCCCC(F)(F)c3nc4ccc(OC)cc4nc3O2)[C@@H]1C(=O)N[C@]1(C(=O)NS(=O)(=O)C2(C)CC2)C[C@H]1C(F)F [Example 63, (1aR,5S,8S,9S,10R,22aR)-5-tert-butyl-N-[(1R,2R)-2-(difluoromethyl)-1-{[(1-methylcyclopropyl)sulfonyl]carbamoyl}cyclopropyl]-9-ethyl-18,18-difluoro-14-methoxy-1a-methyl-3,6-dioxo-1,1a,3,4,5,6,9,10,18,19,20,21,22,22a-tetradecahydro-8H-7,10-methanocyclopropa[18,19][1,10,3,6]dioxadiazacyclononadecino[11,12-b]quinoxaline-8-carboxamide] | 0.01 | 4.2 | 2.9 | 3.2 | 11 | 3.2 | 6.9 | 4.1 | 4 | 2.1 | 3.4
4 | CC[C@@H]1[C@@H]2CN(C(=O)[C@H](C(C)(C)C)NC(=O)O[C@@H]3CCCC[C@H]3CCCCCc3nc4ccc(OC)cc4nc3O2)[C@@H]1C(=O)N[C@]1(C(=O)NS(=O)(=O)C2CC2)C[C@H]1C(F)F [Example 66, (4aR,8S,11 S,12S,13R,25aR)-8-tert-butyl-N-[(1R,2R)-1-[(cyclopropylsulfonyl)carbamoyl]-2-(difluoromethyl)cyclopropyl]-12-ethyl-17-methoxy-6,9-dioxo-2,3,4,4a,6,7,8,9,12,13,21,22,23,24,25,25a-hexadecahydro-1H,11H-10,13-methanoquinoxalino[2,3-k][1,10,3,6]benzodioxadiazacyclononadecine-11-carboxamide] | 0.06 | 37 | 20 | 105 | 1790 | 25 | 735 | 35 | 240 | 14 | 396
5 | COc1ccc2nc3c(nc2c1)O[C@H]1CN(C(=O)[C@H](C(C)(C)C)NC(=O)O[C@@H]2CCCC[C@H]2CCCCC3(F)F)[C@H](C(=O)N[C@]2(C(=O)NS(=O)(=O)C3CC3)C[C@H]2C(F)F)[C@@H]1C [Example 68, (4aR,8S,11 S,12S,13R,25aS)-8-tert-butyl-N-[(1R,2R)-1-[(cyclopropylsulfonyl)carbamoyl]-2-(difluoromethyl)cyclopropyl]-21,21-difluoro-17-methoxy-12-methyl-6,9-dioxo-2,3,4,4a,6,7,8,9,12,13,21,22,23,24,25,25a-hexadecahydro-1H,11H-10,13-methanoquinoxalino[2,3-k][1,10,3,6]benzodioxadiazacyclononadecine-11-carboxamide] | 0.63 | 13 | 7.7 | 18 | 364 | 9.4 | 139 | 14 | 37 | 4.4 | 78
6 | CCOc1ccc2nc3c(nc2c1)O[C@H]1CN(C(=O)[C@H](C(C)(C)C)NC(=O)O[C@@H]2C[C@H]2CCCCC3)[C@H](C(=O)N[C@]2(C(=O)NS(=O)(=O)C3(C)CC3)C[C@H]2C(F)F)[C@@H]1CC [Example 69, (1aR,5S,8S,9S,10R,22aR)-5-tert-butyl-N-[(1R,2R)-2-(difluoromethyl)-1-{[(1-methylcyclopropyl)sulfonyl]carbamoyl}cyclopropyl]-14-ethoxy-9-ethyl-3,6-dioxo-1,1a,3,4,5,6,9,10,18,19,20,21,22,22a-tetradecahydro-8H-7,10-methanocyclopropa[18,19][1,10,3,6]dioxadiazacyclononadecino[11,12-b]quinoxaline-8-carboxamide] | 0.17 | 5.2 | 4.9 | 11 | 64 | 5.8 | 42 | 8.2 | 15 | 3.9 | 28
7 | COc1ccc2nc3c(nc2c1)O[C@H]1CN(C(=O)[C@H](C(C)(C)C)NC(=O)O[C@@H]2CC4CC(C4)[C@H]2CCCCC3)[C@H](C(=O)N[C@]2(C(=O)NS(=O)(=O)C3CC3)C[C@H]2C(F)F)[C@@H]1C [Example 71, (4aR,8S,11S,12S,13R,25aR)-8-tert-butyl-N-[(1R,2R)-1-[(cyclopropylsulfonyl)carbamoyl]-2-(difluoromethyl)cyclopropyl]-17-methoxy-12-methyl-6,9-dioxo-2,3,4,4a,6,7,8,9,12,13,21,22,23,24,25,25a-hexadecahydro-1H,11H-1,3,10,13-dimethanoquinoxalino[2,3-k][1,10,3,6]benzodioxadiazacyclononadecine-11-carboxamide] | 0.14 | 6.5 | 5.3 | 23 | 160 | 5.3 | 49 | 9.1 | 30 | 3.8 | 66
8 | COc1ccc2nc3c(nc2c1)O[C@H]1CN(C(=O)[C@H](C(C)(C)C)NC(=O)O[C@]2(C)C[C@H]2CCCCC3(F)F)[C@H](C(=O)N[C@]2(C(=O)NS(=O)(=O)C3(C)CC3)C[C@H]2C(F)F)[C@@H]1C [Example 76, (1aR,5S,8S,9S,10R,22aR)-5-tert-butyl-N-[(1R,2R)-2-(difluoromethyl)-1-{[(1-methylcyclopropyl)sulfonyl]carbamoyl}cyclopropyl]-18,18-difluoro-14-methoxy-1a,9-dimethyl-3,6-dioxo-1,1a,3,4,5,6,9,10,18,19,20,21,22,22a-tetradecahydro-8H-7,10-methanocyclopropa[18,19][1,10,3,6]dioxadiazacyclononadecino[11,12-b]quinoxaline-8-carboxamide] | 0.06 | 2.4 | 2.2 | 2.4 | 9 | 1.9 | 3.4 | 2 | 2.1 | 1 | 2.8
